In US20250177392A1, “BROAD SPECTRUM INHIBITORS OF CYTOMEGALOVIRUS” (MICROBIOTIX, INC., priority 2022, published 2025):
pIC50: −log10 of the molar value.

Key:
NHDF cells [1] = experiment: Cell number by Hoechst stain (cell proliferation); type: cell-based, human; conditions: up to 50 μM, 6 day period; cycloheximide 50 μg/mL
Experimental: (§1) Fibroblasts were treated with increasing concentrations of MBX-4992 and MBXC-4336 for up to 6 days and cell number was measured periodically using Hoechst stain to quantify cell proliferation (A and B). Cyclohexamide (CHX) and DMSO (−) were used as positive and negative controls for cytotoxicity respectively. Cell cytostaticity (C and D) was assessed using ATP-based CellTiter Glo luciferase assay following extended incubation with increasing concentrations of MBX-4992 and MBXC-4336 for 1 or 6 days. Relative light units (RLU) were measured following cell lysis and normalized to DMSO treated cells for each time point.
(§2) The CellTiter Glo Luminescent Assay (Promega Inc, Madison, WI) was performed according to the manufacturer's instruction. NHDF cells (10^4) were plated in a 96-well plate overnight and treated with MBX-4992 or MXC-4336 ([…]) in triplicate for up to 6 days. Cyclohexamide (50 μg/mL) was used as a control. CellTiter Glo substrate was added in a 1:1 ratio with media and CellTiter-Glo reagent followed by the analysis of luciferase activity (relative light units, RLU) using a BioTek Synergy H1 microplate reader. In parallel, an identical plate was labelled with Hoescht reagent (25 μg/mL) to quantify the cell number using a Celigo Cytometer.
(§3) Next, the cytostaticity and cytotoxicity of treatment with MBX-4992 and MBXC-4336 was analyzed. […]

NHDF cells [2] = experiment: CellTiter Glo ATP luciferase assay; type: cell-based, human; conditions: 0-50 μM, 1 or 6 days; cycloheximide 50 μg/mL
Experimental: as §1, §2, §3

AD169^R (IE1 expression) = experiment: Western blot (immunoblot) of IE1 expression in AD169^R-infected cells; type: cell-based, Human cytomegalovirus; conditions: NHDF cells, 24 hpi; MBX-4992 1-10 μM, ganciclovir 5 μM, convallotoxin 0.01 μM
Experimental: The molecular weight markers and respective proteins are indicated.
FIGS. 12A and B are Western Blot assays showing that MBXC-4336 limits expression of IE1 in fibroblasts and epithelial cells. Total cell lysates from AD169^R-infected (MOI 0.2) NHDF (A) and ARPE-19 (B) cells pre-treated with DMSO, MBX-4336 (0, 1, 5, 10, or 20 μM), or heparin (50 μg/mL) collected at 48 hpi were subjected to Western blot analysis using a rabbit anti-IE-1 antibody (lanes 1-7) and an anti-GAPDH antibody (lanes 8-14) as a loading control. The molecular weight markers and respective proteins are indicated.
Total cell lysates from virus infected NHDF cells treated with compounds were created through SDS-lysis (10^4/100 uL of 1% SDS) of at least three rounds of heating at 95° C. for 3 min and vigorous agitation. The total cell lysates were resolved using an SDS-polyacrylamide gel (12.5%), transferred to a PVDF membrane using a semi-dry apparatus. The membrane was then incubated with 1% BSA/PBS for 1 hr at room temperature followed by incubation with anti-IE1 and anti-GAPDH. Finally, the respective secondary antibody conjugated with HRP was incubated with membrane followed by detection using ECL reagents (Millipore).
Next, inhibition of the expression of IE1 in AD169^R-infected cells treated with MBX-4992 was examined by immunoblot analysis (FIG. 4E). […] Collectively, these findings further indicate that MBX-4992 effectively prevents the expression of the immediate-early genes during a CMV infection.

HCMV AD169 = experiment: Herpes virus panel neutralization, HCMV AD169; type: cell-based, Human cytomegalovirus; conditions: Human betaherpesvirus 5; HCMV AD169; read-out: IC50
Experimental: (§4) To determine the specificity of MBX-4992, additional neutralization experiments were conducted using a panel of herpes viruses performed in the presence of MBX-4992. […] Collectively, the antiviral activity of MBX-4992 is equivalent to that of GCV indicating specific inhibition of CMV replication.

HCMV GDGr K17 (GCV^R) = experiment: Herpes virus panel neutralization, GCV-resistant HCMV; type: cell-based, Human cytomegalovirus; conditions: Human betaherpesvirus 5
Experimental: as §4

MCMV Smith = experiment: Herpes virus panel neutralization, MCMV; type: cell-based, Murine cytomegalovirus; conditions: Murid betaherpesvirus 1; MCMV Smith; read-out: IC50
Experimental: as §4

AD169^R CMV virus = experiment: Plaque reduction (dissemination) assay, prophylactic treatment; type: cell-based, Human cytomegalovirus; conditions: 2.5 μM, 10 dpi
Experimental: FIG. 8A-H are fluorescence images (A & B) and graphs showing that NAPA compounds MBX-4992 and MBXC-4336 work in both prophylactic and therapeutic settings to inhibit HCMV infection. ARPE-19 cells (A to D) and NHDF cells (E and F) treated with increasing concentrations (0, 1, 5, 20, and 50 μM) of MBX-4992, MBXC-4336, or ganciclovir (2.5 μM) were infected with AD169^R (MOI 0.025) and analyzed for viral plaques of >5,000 μm^2 (C and E) and >10,000 μm^2 (D and F) based on GFP fluorescence. The representative images of plaques from AD169^R-infected ARPE-19 cells treated MBX-4992, MBXC-4336, ganciclovir are shown (A and B). MBX-4992, MBXC-4336 (G and H), and ganciclovir treatment at 48 hpi of AD169^R-infected ARPE-19 cells (MOI 0.025) were analyzed for virus plaques >5,000 μm^2 and >10,000 μm^2 at 10 dpi. The normalized plaque number was designated to be 100 based on plaques from DMSO treated cells. Statistical tests were performed using ordinary one-way ANOVA with multiple comparisons to DMSO treated cells as a control and a Dunnett's post-test; *, p<0.05; **, p<0.01; ***, p<0.001; ****, p<0.0001.
For the prophylactic treatment analysis, the plaque assay was performed on ARPE-19 and NHDF cells (4×10^4) in a 24-well plate. The cells were pretreated for 1 hour with either MBX-4992 or MBXC-4336 (1-50 μM), DMSO, or ganciclovir (2.5 μM) and followed by virus infection with AD169^R. Following a 2-hour incubation at 37° C., the inoculum was removed and cells were overlaid with 1% low melt sea agarose. Upon solidification of the agarose, MBX-4992, MBXC-4336, DMSO, or ganciclovir in media was added at the indicated concentration. The drugs were replaced every 3 days. The cells were examined using Brightfield and GFP fluorescence to quantify the number and size of virus plaques using a Celigo Cytometer at 10 dpi.
To address whether NAPA compounds can limit virus dissemination in epithelial cells, we analyzed the inhibitory properties of MBX-4992 and MBXC-4336 using a plaque reduction assay by designating a cluster of virus infected cells as a virus plaque (Parsons et al., Antivir. Res., 193:105124 (2021)) The results are shown in FIG. 8A-H.
To evaluate the prophylactic function of the NAPA compounds, ARPE-19 cells and NHDF cells treated with DMSO, MBX-4992, MBXC-4336 (0-50 μM), or ganciclovir (2.5 μM) were infected with AD169^R CMV virus and analyzed for virus plaques at 10 dpi based on GFP fluorescence (FIG. 8A-F). A cluster of virus infected cells was designated a viral plaque based on an average cluster area of 5,000 μm^2 or 10,000 μm^2 (FIG. 8A-B) using a Celigo cytometer.

TB40/E = experiment: Plaque assay, MBX-4992 and ganciclovir alone and in combination; type: cell-based, Human cytomegalovirus; conditions: ARPE-19 and NHDF cells, 10 dpi; MBX-4992 1-20 μM, ganciclovir 2.5 μM
Experimental: At 10 day post-infection, representative whole well images of plaques >10,000 μm^2 (A and B) were quantified based on GFP fluorescence intensity and calculated relative to DMSO controls (C and D). Statistical tests were performed using ordinary one-way ANOVA with multiple comparisons to DMSO treated cells as a control and a Dunnett's post-test. *, p<0.05; **, p<0.01; ***, p<0.001; ****, p<0.0001.
At 10 days post-infection, representative whole well images of plaques >10,000 μm^2 (A and B) were quantified based on GFP fluorescence intensity and calculated relative to DMSO controls (C and D).

AD169^R [3] = experiment: Virus pre-incubation / washout study; type: cell-based, Human cytomegalovirus; conditions: virus pre-incubated, compound washed out; MBX-4992 10 μM, heparin 50 μg/ml
Experimental: (B) Based on the schematic, AD169^R (MOI 0.2) was pre-incubated with DMSO, MBX-4992, or heparin for one hour before being added to NHDF cells. Virus/compound mix was washed out after 30 minutes as indicated and either unchanged or replaced with media containing DMSO, MBX-4992, or heparin. Virus infection was quantified at 24 hpi GFP fluorescence. Percent infection was normalized to untreated cells.
NHDF cells (10^4) plated overnight in a 96-well plate were incubated at 4° C. for 30 minutes with AD169^R CMV virus pretreated with MBX-4992 (10 μM), Heparin (50 μg/mL) or DMSO for 1 hour at room temperature (in triplicate). For 2/3rd of the samples, media was aspirated and half of the wells received DMSO media, regardless of which drug the virus was exposed to, or MBX-4992 (10 μM), or Heparin (50 μg/mL) overnight. At 18 hpi, the cells were fixed with 4% paraformaldehyde, stained with a rabbit anti-IE1 antibody followed by an anti-rabbit Alexa 647, and analyzed using the Celigo cytometer. The DMSO condition that was not aspirated post binding was set as 100% infection.
To further characterize the mechanism of action, pre-incubation/washout studies were performed using AD169^R and MBX-4992. […] At 18 hpi, cells were immunostained with an anti-IE1 antibody as a readout for infection and quantified using a Celigo cytometer. […]

AD169^R [4] = experiment: Cells pre-incubation / washout study; type: cell-based, Human cytomegalovirus; conditions: cells pre-treated; drugs not removed or added back to washed-out cells
Experimental: (C) NHDF cells were pre-incubated with DMSO, MBX-4992 or heparin prior to virus addition. After addition of AD169^R (MOI 0.2) for 30 min, media was either unchanged or replaced with media containing DMSO, MBX-4992, or heparin. Virus infection was quantified at 24 hpi by GFP fluorescence. Percent infection was normalized to untreated cells. Statistical tests were performed using ordinary one-way ANOVA with multiple comparisons to DMSO treated cells as a control and a Dunnett's post-test: *, p<0.05; ****, p<0.0001.
NHDF cells (10^4) plated overnight in a 96-well plate were pretreated with MBX-4992 (10 μM), heparin (50 μg/mL) or DMSO for 1 hour at 37° C. The plate was then placed at 4° C. for 5 minutes followed by the addition of AD169^R CMV virus for 30 minutes. 2/3rd of the samples were aspirated post binding. Half of those samples received DMSO media, regardless of the drug the cells were previously exposed to. The remaining wells received either MBX-4992 (10 μM) or Heparin (50 μg/mL) overnight. At 18 hpi, the cells were fixed with 4% paraformaldehyde, stained with a rabbit anti-IE1 antibody followed by an anti-rabbit Alexa 647, and analyzed using the Celigo cytometer. The DMSO condition that was not aspirated post binding was set as 100% infection.
We next examined whether pre-treating cells with MBX-4992 can limit virus infection. Cells were pre-treated with MBX-4992 or heparin for […] followed by the addition of AD169^R for 30 min at 4° C. The cells were either washed out or unchanged as indicated and replaced with media containing DMSO, MBX-4992, or heparin followed by incubation at 37° C. At 18 hpi, virus infection was evaluated using a Celigo cytometer.

Molecule: C[C@@H]1C[C@@H]([C@H](O)CC2CC(=O)NC(=O)C2)C(=O)[C@@H](C)C1 [cycloheximide, reference compound]
- cell number (NHDF cells [1]): dramatic decrease in cell number and luciferase activity
- luciferase signal (ATP levels) (NHDF cells [2]): dramatic decrease in cell number and luciferase activity

Molecule: Nc1nc(O)c2ncn(COC(CO)CO)c2n1 [ganciclovir, reference compound]
- IE1 expression by immunoblot (AD169^R (IE1 expression)): did not impact infection
- pIC50 (HCMV AD169): 6.05
- pIC50 (HCMV GDGr K17 (GCV^R)): 4.98
- pIC50 (MCMV Smith): 6.70
- reduction of plaque number (AD169^R CMV virus): ~50%
- viral plaques >10,000 μm^2, single drug (TB40/E): decreased

Molecule: heparin [reference compound]
- decrease of infection after washing out (AD169^R [3]): positive control for inhibition
- virus infection, drug not removed or added back (AD169^R [4]): significantly inhibited virus infection
